These are literature values, as cited in patent US11791016B2, “Methods and systems for computer-generated predictive application of neuroimaging and gene expression mapping data” (NEUMORA THERAPEUTICS, INC., priority 2017, dated 2023).

The target of data set [1] is 5-HT2A serotonin receptor (Homo sapiens, UniProt P28223). The note with it: healthy human subjects.
Another data set has as its target T1, histamine H3 receptor (Homo sapiens, UniProt Q9Y5N1).
T1 construct: host or cells: patients with schizophrenia, in vivo (Egan et al. 2013)
The note with it: patients with schizophrenia.

The next data set deals with 5HT6 receptors (Homo sapiens, UniProt P50406).
5HT6 receptors, sequence (P50406 whole entry): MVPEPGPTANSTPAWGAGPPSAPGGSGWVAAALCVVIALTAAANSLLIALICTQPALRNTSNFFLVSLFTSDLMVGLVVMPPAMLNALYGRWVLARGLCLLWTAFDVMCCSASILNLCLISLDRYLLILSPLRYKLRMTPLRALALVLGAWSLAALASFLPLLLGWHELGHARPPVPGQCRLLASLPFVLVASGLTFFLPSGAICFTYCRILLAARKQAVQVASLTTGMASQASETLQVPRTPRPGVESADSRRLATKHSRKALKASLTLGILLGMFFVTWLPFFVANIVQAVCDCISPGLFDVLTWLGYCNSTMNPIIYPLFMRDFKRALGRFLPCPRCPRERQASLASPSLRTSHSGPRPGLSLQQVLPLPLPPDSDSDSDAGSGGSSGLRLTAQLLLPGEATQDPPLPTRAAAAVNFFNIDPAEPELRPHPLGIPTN
The target in data set [2] is muscarinic M3 (CHRM3) receptor (Homo sapiens, UniProt P20309).
muscarinic M3 (CHRM3) receptor, sequence (P20309 whole entry, species assumed): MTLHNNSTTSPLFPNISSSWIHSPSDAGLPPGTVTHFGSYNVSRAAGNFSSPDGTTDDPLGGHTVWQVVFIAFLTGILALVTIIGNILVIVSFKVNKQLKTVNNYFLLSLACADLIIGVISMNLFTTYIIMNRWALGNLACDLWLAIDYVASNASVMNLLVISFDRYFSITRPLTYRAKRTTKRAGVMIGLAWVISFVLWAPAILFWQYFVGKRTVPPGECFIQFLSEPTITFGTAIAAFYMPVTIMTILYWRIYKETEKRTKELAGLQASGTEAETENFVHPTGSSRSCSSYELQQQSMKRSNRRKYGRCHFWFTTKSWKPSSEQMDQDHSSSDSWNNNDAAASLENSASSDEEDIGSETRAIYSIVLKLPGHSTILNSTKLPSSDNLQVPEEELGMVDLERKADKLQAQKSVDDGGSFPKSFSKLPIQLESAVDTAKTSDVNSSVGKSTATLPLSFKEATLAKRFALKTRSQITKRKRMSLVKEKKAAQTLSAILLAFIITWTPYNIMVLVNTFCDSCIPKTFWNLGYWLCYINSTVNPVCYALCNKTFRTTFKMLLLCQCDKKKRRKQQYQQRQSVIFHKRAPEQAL

5-HT2A serotonin receptor, sequence (P28223 whole entry): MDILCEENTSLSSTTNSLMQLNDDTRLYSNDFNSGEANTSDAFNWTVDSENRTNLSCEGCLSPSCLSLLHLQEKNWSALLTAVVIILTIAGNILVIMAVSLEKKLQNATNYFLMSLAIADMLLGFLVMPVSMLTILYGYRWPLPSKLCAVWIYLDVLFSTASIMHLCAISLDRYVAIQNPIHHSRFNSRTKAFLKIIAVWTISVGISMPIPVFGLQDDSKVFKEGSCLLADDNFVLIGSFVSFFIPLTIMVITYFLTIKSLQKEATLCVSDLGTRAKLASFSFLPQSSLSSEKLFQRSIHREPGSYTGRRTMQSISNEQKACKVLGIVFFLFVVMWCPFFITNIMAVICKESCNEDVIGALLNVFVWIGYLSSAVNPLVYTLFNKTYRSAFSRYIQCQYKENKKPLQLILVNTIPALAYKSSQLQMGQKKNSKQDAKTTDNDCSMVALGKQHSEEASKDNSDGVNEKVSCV
T1 sequence (Q9Y5N1 whole entry): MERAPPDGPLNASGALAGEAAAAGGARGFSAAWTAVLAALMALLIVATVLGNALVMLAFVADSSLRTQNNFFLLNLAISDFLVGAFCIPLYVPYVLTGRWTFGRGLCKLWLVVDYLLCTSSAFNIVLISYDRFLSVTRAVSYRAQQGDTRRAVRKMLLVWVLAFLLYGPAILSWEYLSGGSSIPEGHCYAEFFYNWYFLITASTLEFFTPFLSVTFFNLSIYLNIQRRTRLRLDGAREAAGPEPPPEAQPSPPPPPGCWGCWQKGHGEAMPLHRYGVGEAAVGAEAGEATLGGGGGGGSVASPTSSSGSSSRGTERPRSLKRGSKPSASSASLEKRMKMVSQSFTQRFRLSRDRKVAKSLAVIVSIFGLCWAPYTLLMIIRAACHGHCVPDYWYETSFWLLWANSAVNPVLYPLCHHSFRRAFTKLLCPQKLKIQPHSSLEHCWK

`CCN(CC)C(=O)[C@@H]1C=C2c3cccc4[nH]cc(c34)C[C@H]2N(C)C1` [LSD, lysergic acid diethylamide]: the “change in mean functional connectivity (Global Brain Connectivity, GBC)” value in data set [1] (acute administration, fMRI-derived cortical map) is listed as “large increase in occipital visual cortex”. For the compound `Cc1nc2cccc(C(F)(F)F)c2c(=O)n1-c1ccc(OCCCN2CCCC2)cc1` [MK-0249], on histamine H3 receptor, the “improvement of cognitive deficits” value is reported as “failed to improve cognitive deficits”. For the compound `O=C1Nc2ccc(Cl)cc2[C@@](C#CC2CC2)(C(F)(F)F)O1` [efavirenz], the “mode of action at 5HT6 receptors” value on 5HT6 receptors is “inverse agonist activity”. In addition, in data set [2], the “mode of action at muscarinic M3 (CHRM3) receptor” value is listed as “antagonist activity”.

On to `O=C(c1ccc(F)cc1)C1CCN(CCn2c(=O)[nH]c3ccccc3c2=O)CC1` [ketanserin], for which, in data set [1] (pre-administration before LSD), the “effect on LSD-induced neural change (GBC)” value is “blocked” and the “effect on behavioral effects of LSD” value is recorded as “blocked”.
